# Measurements published in paper PMC12669672, “Structural insights into selective and dual antagonism of EP2 and EP4 prostaglandin receptors” (The EMBO Journal, 2025).
# pIC50: −log10 of the molar value. Several values for one entry are separate records, joined by “and”; a condition that tells them apart may be missing. Identical values can stand only once. Entries after “also recorded” stand apart in the source; their conditions may differ. Like-named read-outs stand apart in the source and are kept apart here.
# How the values were obtained:
# Type in all cases: cell-based
# EP4 WT = biological target: T1, EP4 WT (Homo sapiens, UniProt P35408); test: GloSensor cAMP assay, antagonism of PGE2-induced cAMP; conditions: for remaining activity at 100 µM / remaining activity at […] / remaining activity at 0.1585 µM / remaining activity at 0.03236 µM / remaining activity at 0.006457 µM / remaining activity at 0.001288 µM: 1 h
# T1 construct: The full-length EP2 or EP4 was cloned into the pcDNA3.1 vector; FLAG (N); expressed in transfected cells; host or cells: AD293 cells
# T1 sequence (P35408 whole entry): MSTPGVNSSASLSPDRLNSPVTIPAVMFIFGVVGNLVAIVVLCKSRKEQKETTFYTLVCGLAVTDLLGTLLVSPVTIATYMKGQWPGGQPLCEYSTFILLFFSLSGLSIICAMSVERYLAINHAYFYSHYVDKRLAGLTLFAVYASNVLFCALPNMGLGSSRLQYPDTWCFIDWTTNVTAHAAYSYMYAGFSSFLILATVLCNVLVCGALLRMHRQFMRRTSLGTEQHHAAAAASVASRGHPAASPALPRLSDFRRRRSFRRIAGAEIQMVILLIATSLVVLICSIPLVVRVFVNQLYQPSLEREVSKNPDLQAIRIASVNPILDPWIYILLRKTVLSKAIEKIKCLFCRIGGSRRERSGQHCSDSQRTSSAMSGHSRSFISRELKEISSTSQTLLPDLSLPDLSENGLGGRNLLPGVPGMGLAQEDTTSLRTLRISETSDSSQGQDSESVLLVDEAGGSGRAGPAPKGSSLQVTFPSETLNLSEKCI
# Experimental: (§1) The full-length EP2 or EP4 was cloned into the pcDNA3.1 vector (Invitrogen), incorporating an N-terminal FLAG tag. AD293 cells were seeded in six-well plates containing DMEM supplemented with 10% dialyzed FBS 1 day prior to transfection. Following overnight growth, cells were transfected with a 1:1 ratio of receptor construct and GloSensor22F cAMP biosensor (Promega) plasmids.
# (§2) Twenty-four hours post-transfection, the cells were transferred to CO2-independent media containing 2% GloSensor cAMP Reagent (Promega) and distributed into 384-well assay plates at a density of 4000 cells per well in 10 μL. […] The plates were then incubated at 37 °C for an additional hour before luminescence measurements were taken using an EnVision plate reader.
# (§3) Data analysis was performed using GraphPad Prism software v8.0.1. A nonlinear regression analysis, employing a sigmoidal dose–response model, was conducted to determine the Emax values and half-maximum inhibitory concentrations (IC50) for each compound tested.
# EP2 WT = EP2 WT (Homo sapiens, UniProt P43116); test: as above; set-up: The full-length EP2 or EP4 was cloned into the pcDNA3.1 vector; FLAG (N); expressed in transfected cells; host or cells: AD293 cells
# Sequence of EP2 WT (P43116 whole entry): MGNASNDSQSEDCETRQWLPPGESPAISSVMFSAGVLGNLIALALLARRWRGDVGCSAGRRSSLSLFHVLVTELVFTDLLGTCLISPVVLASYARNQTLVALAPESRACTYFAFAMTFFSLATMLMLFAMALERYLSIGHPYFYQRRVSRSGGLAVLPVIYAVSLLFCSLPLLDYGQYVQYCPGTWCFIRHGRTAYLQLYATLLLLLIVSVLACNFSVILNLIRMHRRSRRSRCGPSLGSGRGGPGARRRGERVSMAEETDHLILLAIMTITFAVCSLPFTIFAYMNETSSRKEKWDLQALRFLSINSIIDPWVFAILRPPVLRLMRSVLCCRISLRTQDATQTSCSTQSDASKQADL
# Experimental: as §1, §2, §3
# [1] = biological target: T2, constitutively active EP2 M116A (Homo sapiens, UniProt P43116, M116A); test: GloSensor cAMP assay, inhibition of constitutive activity
# T2 construct: The full-length EP2 or EP4 was cloned into the pcDNA3.1 vector; FLAG (N); expressed in transfected cells; host or cells: AD293 cells
# T2 sequence (P43116 whole entry M116A): as the sequence (P43116 whole entry) above, with M116A counted along it
# Experimental: as §1, §2, §3
# [2] = biological target: T3, constitutively active EP2 S305A (Homo sapiens, UniProt P43116, S305A); test: as above
# T3 construct: The full-length EP2 or EP4 was cloned into the pcDNA3.1 vector; FLAG (N); expressed in transfected cells; host or cells: AD293 cells
# T3 sequence (P43116 whole entry S305A): as the sequence (P43116 whole entry) above, with S305A counted along it
# Experimental: as §1, §2, §3
# [3] = TG6-129, WT, single experiments 1st-3rd
# [4] = no PGE2, pIC50 mutant - pIC50 WT, mean
smiles,measurement,setting,value
CCc1nnc(NS(=O)(=O)c2ccc(NC(=S)NC(=O)/C=C/c3ccc(F)cc3)cc2)s1 [TG6-129],remaining activity at 100 µM,"EP4 WT; TG6-129 log([M]) -4.00, read-out: % cAMP activity (normalized to WT)",15.1%
same,remaining activity at […],"EP4 WT; TG6-129 log([M]) -4.70, read-out: % cAMP activity (normalized to WT)",25.9%
same,remaining activity at […],"EP4 WT; TG6-129 log([M]) -5.40, read-out: % cAMP activity (normalized to WT)",86.4%
same,remaining activity at […],"EP4 WT; TG6-129 log([M]) -6.10, read-out: % cAMP activity (normalized to WT)",94.7%
same,remaining activity at 0.1585 µM,"EP4 WT; TG6-129 log([M]) -6.80, read-out: % cAMP activity (normalized to WT)",90.5%
same,remaining activity at 0.03236 µM,"EP4 WT; TG6-129 log([M]) -7.49, read-out: % cAMP activity (normalized to WT)",87.9%
same,remaining activity at 0.006457 µM,"EP4 WT; TG6-129 log([M]) -8.19, read-out: % cAMP activity (normalized to WT)",104%
same,remaining activity at 0.001288 µM,"EP4 WT; TG6-129 log([M]) -8.89, read-out: % cAMP activity (normalized to WT)",109%
same,remaining activity at 100 µM,"EP4 WT; read-out: % cAMP activity EP4 (normalized to Grapiprant), ligand log([M]) -4.00, single experiments 1st-3rd, Fig. S1A",15.1%
same,remaining activity at […],"EP4 WT; read-out: % cAMP activity EP4 (normalized to Grapiprant), ligand log([M]) -4.70, single experiments 1st-3rd, Fig. S1A",25.9%
same,remaining activity at […],"EP4 WT; read-out: % cAMP activity EP4 (normalized to Grapiprant), ligand log([M]) -5.40, single experiments 1st-3rd, Fig. S1A",86.4%
same,remaining activity at […],"EP4 WT; read-out: % cAMP activity EP4 (normalized to Grapiprant), ligand log([M]) -6.10, single experiments 1st-3rd, Fig. S1A",94.7%
same,remaining activity at 0.1585 µM,"EP4 WT; read-out: % cAMP activity EP4 (normalized to Grapiprant), ligand log([M]) -6.80, single experiments 1st-3rd, Fig. S1A",90.5%
same,remaining activity at 0.03236 µM,"EP4 WT; read-out: % cAMP activity EP4 (normalized to Grapiprant), ligand log([M]) -7.49, single experiments 1st-3rd, Fig. S1A",87.9%
same,remaining activity at 0.006457 µM,"EP4 WT; read-out: % cAMP activity EP4 (normalized to Grapiprant), ligand log([M]) -8.19, single experiments 1st-3rd, Fig. S1A",104%
same,remaining activity at 0.001288 µM,"EP4 WT; read-out: % cAMP activity EP4 (normalized to Grapiprant), ligand log([M]) -8.89, single experiments 1st-3rd, Fig. S1A",109%
same,cAMP activity (∆pIC50 from EP4 WT),EP4 WT; [3],0.138 and 0.074 and -0.140
same,pIC50,EP2 WT,7.09
same,remaining activity at 0.1 µM,"EP2 WT; 1 h, TG6-129 log([M]) -7, read-out: % cAMP activity (normalized to WT)",40.1%
same,remaining activity at 0.01 µM,"EP2 WT; 1 h, TG6-129 log([M]) -8, read-out: % cAMP activity (normalized to WT)",94.7%
same,remaining activity at 0.001 µM,"EP2 WT; 1 h, TG6-129 log([M]) -9, read-out: % cAMP activity (normalized to WT)",104%
same,remaining activity at 0.0001 µM,"EP2 WT; 1 h, TG6-129 log([M]) -10, read-out: % cAMP activity (normalized to WT)",94.6%
same,remaining activity at 10 pM,"EP2 WT; 1 h, TG6-129 log([M]) -11, read-out: % cAMP activity (normalized to WT)",102%
same,remaining activity at 1 pM,"EP2 WT; 1 h, TG6-129 log([M]) -12, read-out: % cAMP activity (normalized to WT)",94.1%
same,remaining activity at 1 µM,"EP2 WT; 1 h, ligand log([M]) -6, single experiments 1st-3rd, Fig. S7B, read-out: % cAMP activity (normalized to WT)",3.11%
same,remaining activity at 0.1 µM,"EP2 WT; 1 h, ligand log([M]) -7, single experiments 1st-3rd, Fig. S7B, read-out: % cAMP activity (normalized to WT)",42.8%
same,remaining activity at 0.01 µM,"EP2 WT; 1 h, ligand log([M]) -8, single experiments 1st-3rd, Fig. S7B, read-out: % cAMP activity (normalized to WT)",80.3%
same,remaining activity at 0.001 µM,"EP2 WT; 1 h, ligand log([M]) -9, single experiments 1st-3rd, Fig. S7B, read-out: % cAMP activity (normalized to WT)",95.4%
same,remaining activity at 0.0001 µM,"EP2 WT; 1 h, ligand log([M]) -10, single experiments 1st-3rd, Fig. S7B, read-out: % cAMP activity (normalized to WT)",93.9%
same,remaining activity at 10 pM,"EP2 WT; 1 h, ligand log([M]) -11, single experiments 1st-3rd, Fig. S7B, read-out: % cAMP activity (normalized to WT)",103%
same,remaining activity at 1 pM,"EP2 WT; 1 h, ligand log([M]) -12, single experiments 1st-3rd, Fig. S7B, read-out: % cAMP activity (normalized to WT)",110%
same,remaining activity at 0.1 µM,"EP2 WT; 1 h, read-out: % cAMP activity on EP2 (normalized to PF-04418948), ligand log([M]) -7, single experiments 1st-3rd, Fig. S1A",46%
same,remaining activity at 0.01 µM,"EP2 WT; 1 h, read-out: % cAMP activity on EP2 (normalized to PF-04418948), ligand log([M]) -8, single experiments 1st-3rd, Fig. S1A",84.5%
same,remaining activity at 0.001 µM,"EP2 WT; 1 h, read-out: % cAMP activity on EP2 (normalized to PF-04418948), ligand log([M]) -9, single experiments 1st-3rd, Fig. S1A",100%
same,remaining activity at 0.0001 µM,"EP2 WT; 1 h, read-out: % cAMP activity on EP2 (normalized to PF-04418948), ligand log([M]) -10, single experiments 1st-3rd, Fig. S1A",98.6%
same,remaining activity at 10 pM,"EP2 WT; 1 h, read-out: % cAMP activity on EP2 (normalized to PF-04418948), ligand log([M]) -11, single experiments 1st-3rd, Fig. S1A",108%
same,remaining activity at 1 pM,"EP2 WT; 1 h, read-out: % cAMP activity on EP2 (normalized to PF-04418948), ligand log([M]) -12, single experiments 1st-3rd, Fig. S1A",115%
same,cAMP activity (∆pIC50 from EP2 WT),EP2 WT; [3],0.065 and 0.064 and -0.014
same,antagonism profile EP2 versus EP4 (in words),"EP2 WT; cAMP accumulation assay upon PGE2 stimulation, Appendix Fig. S1A",dual antagonist that preferentially antagonizes EP2; also recorded: preferential potency toward EP2
same,cAMP activity (∆pIC50 from EP2 WT),"EP2 WT; single experiments 1st-3rd, Appendix Fig. S7A",0.111 and -0.076 and -0.052
same,pIC50,[1],6.31
same,remaining activity at 1 µM,"[1]; 1 h, TG6-129 log([M]) -6, EP2-M116A, read-out: % cAMP activity (normalized to WT)",94.8%
same,"TG6-129 cAMP activity (∆pIC50 from EP2 WT), Mean","[1]; M116A, Mean",-0.618
same,TG6-129 cAMP activity (∆pIC50 from EP2 WT),"[1]; M116A, single experiments 1st-3rd",-0.597 and -0.614 and -0.642
same,ΔpIC50,[1]; [4],-0.62 ± 0.01
same,pIC50,[2],7.30
same,"TG6-129 cAMP activity (∆pIC50 from EP2 WT), Mean","[2]; S305A, Mean",0.384
same,ΔpIC50,[2]; [4],0.38 ± 0.10
